Data on eleven molecules can be found in patent publication US5266566A, “Method of treating fungal infections using sterodial ester compounds” (British Technology Group Limited, priority 1989, dated 1993).

Structures are written as SMILES. In brackets after ≈: the same amount, converted by molar mass. Entries after “also recorded” stand apart in the source; their conditions may differ. Where two headings read alike, the source gives them in different places.

What all share (assay): Disc diffusion antifungal test (zones of inhibition, approximate MIC)
Type in all cases: cell-based
(A growth-free zone around the sample is the usual read-out of agar diffusion tests.)

The test system of assay [1] is Candida albicans NCYC 597. The settings on record: for MIC: Candida albicans; for Activity against Candida albicans (in words): result in words. On the procedure: (§1) Candida albicans NCYC 597; Trichophyton mentagrophytes NCPF 224 and Microsporum audonii NCPF 638 were used throughout as test organisms. These are open deposits at the National Collection of Yeast Cultures, Norwich UK and the National Collection of Pathogenic Fungi of the Commonwealth Mycological Institute, Kew UK.
(§2) All organisms were maintained in a nutrient broth containing (gl^-1): Lab Lemco (Oxoid), 5; Peptone (Oxoid), 5; NaCl, 10. Cultures for testing antimicrobial activity were grown in this medium for 18 h prior to use. Solidified media were prepared by the addition of Agar (Oxoid No. 3) 1.5% w/v.
(§3) Antifungal activity was estimated using solutions of the compound (as the free acid) in dimethyl sulphoxide. A range of concentrations was used for each compound to permit calculation of an approximate MIC. 13 mm discs (Whatman) were soaked in a solution of the appropriate dilution, either allowed to dry, or placed directly onto the surface of nutrient agar plates seeded with the required test organism.
(§4) After 24 h incubation the diameters of zones of inhibition were measured. After a further 24 h incubation, the plates were re-examined and zones re-measured. The compounds were tested in three groups.

Assay [2] relates to Microsporum audonii NCPF 638. To be noted: for MIC: Microsporum. The method, then: as §1, §2, §3, §4
Assay [3] deals with Trichophyton mentagrophytes NCPF 224. On the procedure: as §1, §2, §3, §4
The mark [4] stands for this setting: NCYC597, Table 1, Group 1 tests, read-out: MIC C. albicans.
Setting [5] is: NCPF638, Table 1, Group 1 tests, read-out: MIC M. aud.
Setting [6] is: NCPF638, Table 2, Group 2 tests, read-out: MIC Microsporum audonii.
Where [7] appears, read: NCPF638, Table 3, Group 3 tests, read-out: MIC M. aud.
The mark [8] stands for this setting: NCPF224, Table 1, Group 1 tests, read-out: MIC T. ment.
The mark [9] stands for this setting: NCPF224, Table 2, Group 2 tests, read-out: MIC Trichophyton mentagrophytes.
The mark [10] stands for this setting: NCPF224, Table 3, Group 3 tests, read-out: MIC T. ment.
The mark [11] stands for this setting: NCYC597, read-out: MIC C. albicans, Table 1, Group 1 tests.
Where [12] appears, read: NCYC597, read-out: MIC C. albicans, Table 3, Group 3 tests.
Setting [13] is: NCPF638, read-out: MIC M. aud., Table 1, Group 1 tests.
[14] abbreviates: NCPF224, read-out: MIC T. ment., Table 1, Group 1 tests.
Where [15] appears, read: NCYC597, read-out: MIC Candida albicans, Table 2, Group 2 tests.
Setting [16] is: NCPF638, read-out: MIC Microsporum audonii, Table 2, Group 2 tests.
The mark [17] stands for this setting: NCPF224, read-out: MIC Trichophyton mentagrophytes, Table 2, Group 2 tests.

What is called MIC is the least concentration at which growth counts as inhibited. With `COC(=O)CC[C@@H](C)[C@H]1CC[C@H]2[C@@H]3CC[C@@H]4C[C@H](O)CC[C@]4(C)[C@H]3C[C@H](O)[C@]12C` [Methyl deoxycholate, methyl deoxycholate], the MIC in assay [1] (setting [4]) stood at 20 µg/mL (≈ 49.2 µM); in assay [1] (NCYC597, Table 2, Group 2 tests, read-out: MIC Candida albicans), 31 µg/mL (≈ 76.2 µM); in assay [1] (NCYC597, Table 3, Group 3 tests, read-out: MIC C. albicans) it was 28 µg/mL (≈ 68.9 µM); in assay [2] (setting [5]), 520 µg/mL (≈ 1280 µM); in assay [2] (setting [6]), 200 µg/mL (≈ 492 µM); in assay [2] (setting [7]) it was 450 µg/mL (≈ 1110 µM). The minimal inhibitory concentration (MIC) in assay [3] (setting [8]) is 900 µg/mL (≈ 2210 µM); in assay [3] (setting [9]) it was 250 µg/mL (≈ 615 µM); in assay [3] (setting [10]), 500 µg/mL (≈ 1230 µM). For the same molecule, in assay [1] (Group 2 tests, many resistant colonies in the zone), the “Homogeneity of effect in the zone of inhibition” value is “not homogeneous”. In assay [1], the “Activity against Candida albicans (in words)” value was “highly effective; also recorded: outstanding”.

In the case of `C[C@H](CCC(=O)O)[C@H]1CC[C@H]2[C@@H]3[C@H](O)C[C@@H]4C[C@H](O)CC[C@]4(C)[C@H]3CC[C@]12C` [Chenodeoxycholic acid, reference compound], the MIC in assay [1] (setting [11]) was determined as 140 µg/mL (≈ 357 µM); in assay [2] (setting [5]) it was 1000 µg/mL (≈ 2550 µM); in assay [3] (setting [8]), 1300 µg/mL (≈ 3310 µM).

As to `COC(=O)CC[C@@H](C)[C@H]1CC[C@H]2[C@@H]3[C@H](O)C[C@@H]4C[C@H](O)CC[C@]4(C)[C@H]3CC[C@]12C` [Methyl chenodeoxycholate, methyl chenodeoxycholate], the minimum inhibitory concentration (MIC) in assay [1] (setting [11]) came out at 20 µg/mL (≈ 49.2 µM); in assay [1] (setting [12]), 1000 µg/mL (≈ 2460 µM); in assay [2] (setting [13]) it was 30 µg/mL (≈ 73.8 µM); in assay [2] (NCPF638, read-out: MIC M. aud., Table 3, Group 3 tests), 800 µg/mL (≈ 1970 µM); in assay [3] (setting [14]), 460 µg/mL (≈ 1130 µM); in assay [3] (NCPF224, read-out: MIC T. ment., Table 3, Group 3 tests), 1000 µg/mL (≈ 2460 µM).

With `CCCCOC(=O)CC[C@@H](C)[C@H]1CC[C@H]2[C@@H]3[C@H](O)C[C@@H]4C[C@H](O)CC[C@]4(C)[C@H]3CC[C@]12C` [Butyl chenodeoxycholate, n-butyl chenodeoxycholate], the “MIC C. albicans” value in assay [1] (Table 3, Group 3 tests) is on record as “no effect”. Moreover, the values for the MIC in assay [2] (setting [7]) and in assay [3] (setting [10]) were 1000 µg/mL (≈ 2230 µM) and 1500 µg/mL (≈ 3340 µM), respectively.

In the case of `COC(=O)CC[C@@H](C)[C@H]1CC[C@H]2[C@@H]3[C@H](O)C[C@@H]4C[C@H](O)CC[C@]4(C)[C@H]3C[C@H](O)[C@]12C` [Methyl cholate, methyl cholate], the results for the minimal inhibitory concentration (MIC) in assay [1] (setting [4]), in assay [2] (setting [5]) and in assay [3] (setting [8]) were 3500 µg/mL (≈ 8280 µM), 50 µg/mL (≈ 118 µM) and 80 µg/mL (≈ 189 µM), respectively.

Take `CCCCOC(=O)CC[C@@H](C)[C@H]1CC[C@H]2[C@@H]3CC[C@@H]4C[C@H](O)CC[C@]4(C)[C@H]3C[C@H](O)[C@]12C` [Butyl deoxycholate, n-butyl deoxycholate]: the MIC was determined as 875 µg/mL (≈ 1950 µM) in assay [2] (setting [6]) and 850 µg/mL (≈ 1890 µM) in assay [3] (setting [9]).

In the case of `C[C@H](CCC(=O)O)[C@H]1CC[C@H]2[C@@H]3CC[C@@H]4C[C@H](O)CC[C@]4(C)[C@H]3C[C@H](O)[C@]12C` [Deoxycholic acid, reference compound], the MIC in assay [1] (setting [11]) is 2100 µg/mL (≈ 5350 µM); in assay [1] (setting [12]), 1800 µg/mL (≈ 4590 µM); in assay [1] (setting [15]), 2000 µg/mL (≈ 5090 µM); in assay [2] (setting [5]) it was 30 µg/mL (≈ 76.4 µM); in assay [2] (setting [6]) it was 35 µg/mL (≈ 89.2 µM); in assay [2] (setting [7]), 40 µg/mL (≈ 102 µM). The minimal inhibitory concentration (MIC) in assay [3] (setting [8]) is 300 µg/mL (≈ 764 µM); in assay [3] (setting [9]), 310 µg/mL (≈ 790 µM); in assay [3] (setting [10]), 250 µg/mL (≈ 637 µM). Also, the “Activity against Candida albicans (in words)” value in assay [1] is “poorer action against Candida”. Further, the “Activity against Microsporum audonii (in words)” value in assay [2] (result in words) was “very highly effective; also recorded: effective”.

Take `C[C@H](CCC(=O)O)[C@H]1CC[C@H]2[C@@H]3CC[C@@H]4C[C@H](O)CC[C@]4(C)[C@H]3CC[C@]12C` [Lithocholic acid, reference compound]: the minimum inhibitory concentration (MIC) was found to be 410 µg/mL (≈ 1090 µM) in assay [1] (setting [4]) and 100 µg/mL (≈ 266 µM) in assay [2] (setting [5]).

For the molecule `CCCCOC(=O)CC[C@@H](C)[C@H]1CC[C@H]2[C@@H]3CC[C@@H]4C[C@H](O)CC[C@]4(C)[C@H]3CC[C@]12C` [Butyl lithocholate, n-butyl lithocholate], the values for the MIC in assay [2] (setting [6]) and in assay [3] (setting [9]) were 900 µg/mL (≈ 2080 µM) and 1100 µg/mL (≈ 2540 µM), respectively.

For the molecule `C[C@H](CCC(=O)O)[C@H]1CC[C@H]2[C@@H]3[C@H](O)C[C@@H]4C[C@H](O)CC[C@]4(C)[C@H]3C[C@H](O)[C@]12C` [Cholic acid, reference compound], the MIC in assay [1] (setting [11]) was 390 µg/mL (≈ 955 µM); in assay [1] (setting [15]) it was 405 µg/mL (≈ 991 µM); in assay [2] (setting [13]), 5500 µg/mL (≈ 13500 µM); in assay [2] (setting [16]), about 5000 µg/mL (≈ 12200 µM); in assay [3] (setting [14]) it was 10000 µg/mL (≈ 24500 µM); in assay [3] (setting [17]), about 10000 µg/mL (≈ 24500 µM).

Turning to `COC(=O)CC[C@@H](C)[C@H]1CC[C@H]2[C@@H]3CC[C@@H]4C[C@H](O)CC[C@]4(C)[C@H]3CC[C@]12C` [Methyl lithocholate, methyl lithocholate], the figures for the MIC in assay [2] (setting [16]) and in assay [3] (setting [17]) were 950 µg/mL (≈ 2430 µM) and 1000 µg/mL (≈ 2560 µM), respectively.
